This note sets out measurements from patent publication US11485725B2, “Derivatives of piperlongumine and uses thereof” (Auransa Inc., priority 2017, dated 2022).

One experiment concerns MOLP-8. The experiment in a line: In vitro cell viability assay (CellTiter-Glo, ATP levels), multiple myeloma cells. Type of experiment: cell-based. Particulars: Homo sapiens, MOLP-8, 168 h. The procedure:
(§1) In Vitro Cell Viability Assay
(§2) The present disclosure provides a method for inhibiting cell viability, as measured by ATP levels. The method for inhibiting cell viability is drawn to contacting various cancer cells with the compounds described herein at various concentrations. The cancer cell lines were maintained in culture conditions at 37° C. in an atmosphere of 5% CO2 in air. The cells growing in an exponential growth phase were harvested and counted for plating. Compounds were incubated in two cancer cell types representing multiple myeloma (MOLP-8) and triple negative breast cancer (DU4475). Cells were plated at an optimized cell numbers per well in 96-well plates and allowed to attach to the plates overnight at approximately 80% confluency.
(§3) After addition of compounds, plates were incubated for 7-day. At the end of incubation period on day 8, media was removed and replaced with a solution of CellTiter-Glo™ reagent (Promega®) according to protocol. Luminescence was read using an EnVision® multi-label plate reader (Perkin-Elmer®), and signal intensity was calculated relative to positive and negative control wells. Cisplatin was included as the positive control. A dose-response calculation was performed in a non-linear regression fit and by using the Hill equation to calculate a concentration-response curve and 50% inhibitory concentration (IC50) values for each compound.
(§4) The average IC50 values of compounds 1-15 in multiple myeloma (MOLP-8) and triple negative breast cancer (DU4475) cells are shown in Table 1.
(In general: ATP-based viability assays read luminescence as a measure of living cells.)

A further experiment relates to DU4475. The experiment in a line: In vitro cell viability assay (CellTiter-Glo, ATP levels), triple negative breast cancer cells. The class given is cell-based. Particulars: Homo sapiens, DU-4475, 168 h. The protocol: as §1, §2, §3, §4
In experiment [1] the test system is HCT116 (colorectal cancer) cells. The experiment in a line: Resazurin-based cell viability assay using colorectal cancer cells. Particulars: Homo sapiens, HCT-116, 72 hr incubation. The protocol: Determination of Potency of Compounds in Cell Viability Assay Using Colorectal Cancer Cells
The blue dye resazurin-based assay was performed to determine cell viability and used according to manufacture protocol (Sigma®). HCT116 (colorectal cancer) cells were seeded in the DMEM medium (10% FBS serum). Approximately 1,500 cells were plated per well in 96 well plates. Cells were allowed to grow at 37° C. for 24 hr in 5% CO2 environment in a humidified incubator. Serially diluted compounds (100 μL) were added to the culture plate after 24 hr. After addition of compounds, plates were incubated for 72 hr. Experiment was terminated at the designated incubation time by replacing the medium with 100 μL of 1 mM of resazurin (Sigma®) prepared in culture medium (DMEM) and were further incubated in culture conditions for 4-6 hours. Fluorescence was recorded using a multimodal plate reader (Biotek Synergy Neo®) at an excitation wavelength of 535 nm and emission wavelength of 590 nm to obtain relative fluorescence units. Data analysis was done by subtracting the background fluorescence (medium blank) value from each reading and then normalizing with the vehicle control (DMSO treated cells) to obtain percent survival/proliferation. IC50 was calculated from percent survival values using GraphPad Prism® (see Table 1).

[2] abbreviates: 7-day incubation, CellTiter-Glo, average values, read-out: MOLP-8 IC50.
[3] abbreviates: 7-day incubation, CellTiter-Glo, average values, read-out: DU4475 IC50.

Where two headings read alike, the source gives them in different places.

A word on the IC50: it is the concentration that gives 50% inhibition. On to `C/C(=C\c1cnn(C)c1)C(=O)N1CCC=CC1=O` [Compound 69, 1-[(2E)-2-methyl-3-(1-methyl-1H-pyrazol-4-yl)prop-2-enoyl]-5,6-dihydropyridin-2(1H)-one], for which the IC50 with MOLP-8 (setting [2]) worked out at 1980 nM; in the experiment on DU4475 (setting [3]), 4010 nM; in experiment [1] it was 14000 nM.
For `O=C1C=CCCN1C(=O)/C=C/C1CCN(c2ccccn2)CC1` [Compound 74, (E)-1-(3-(1-(pyridin-2-yl)piperidin-4-yl)acryloyl)-5,6-dihydropyridin-2(1H)-one] the same measures were 660 nM, 1000 nM and 2580 nM.
As to `O=C1C=CCCCN1C(=O)/C=C/c1cnc2c(c1)OCCO2` [Compound 26, (E)-1-(3-(2,3-dihydro-[1,4]dioxino[2,3-b]pyridin-7-yl)acryloyl)-6,7-dihydro-1H-azepin-2(5H)-one], the IC50 in the experiment on MOLP-8 (setting [2]) was 170 nM; in the experiment with DU4475 (setting [3]), 630 nM; in experiment [1] it was 3420 nM.
Taken in the same sequence, the figures for `O=C1C=CCCN1C(=O)/C=C/c1cn[nH]c1` [Compound 89, (E)-1-(3-(1H-pyrazol-4-yl)acryloyl)-5,6-dihydropyridin-2(1H)-one] were 3580 nM, 8410 nM and 2700 nM.
For `O=C1C=CCCN1C(=O)/C=C/C1CCCCC1` [Compound 2, (E)-1-(3-cyclohexylacryloyl)-5,6-dihydropyridin-2(1H)-one] the same measures were 1050 nM, 950 nM and 2600 nM.
Taken in the same sequence, the figures for `O=C1C=CCCN1C(=O)/C=C/c1ncccn1` [Compound 7, (E)-1-(3-(pyrimidin-2-yl)acryloyl)-5,6-dihydropyridin-2(1H)-one] were 570 nM, 490 nM and 1500 nM.
Take `CC1(C)C=CC(=O)N(C(=O)/C=C/C2CCN(C(=O)Nc3ccc(F)cc3)CC2)C1` [Compound 70, (E)-4-(3-(3,3-dimethyl-6-oxo-3,6-dihydropyridin-1(2H)-yl)-3-oxoprop-1-en-1-yl)-N-(4-fluorophenyl)piperidine-1-carboxamide]: the IC50 stood at 1350 nM in the experiment on MOLP-8 (setting [2]), 1750 nM with DU4475 (setting [3]) and 7060 nM in experiment [1].
For `C/C(=C\C1CCNCC1)C(=O)N1CCC=CC1=O` [Compound 88, (E)-1-(2-methyl-3-(piperidin-4-yl)acryloyl)-5,6-dihydropyridin-2(1H)-one 2,2,2-trifluoroacetate], the IC50 in the experiment with MOLP-8 (setting [2]) stood at 3780 nM; in the experiment on DU4475 (setting [3]), 6560 nM; in experiment [1] it was 7060 nM.
For `O=C1C=CCCCN1C(=O)/C=C/c1ccccn1` [Compound 8, (E)-1-(3-(pyridin-2-yl)acryloyl)-1,5,6,7-tetrahydro-2H-azepin-2-one] the same measures were 410 nM, 500 nM and 1500 nM.
Taken in the same sequence, the figures for `C/C(=C\C1CCN(C(=O)OC(C)(C)C)CC1)C(=O)N1CCC=CC1=O` [Compound 72, tert-butyl (E)-4-(2-methyl-3-oxo-3-(6-oxo-3,6-dihydropyridin-1(2H)-yl)prop-1-en-1-yl)piperidine-1-carboxylate] were 2670 nM, 4430 nM and 10300 nM.
Regarding `COc1cc(/C=C/C(=O)N2CCC=CC2=O)cc(OC)c1OC` [Piperlongumine, 1-[(E)-3-(3,4,5-trimethoxyphenyl)prop-2-enoyl]-2,3-dihydropyridin-6-one], the IC50 in the experiment with MOLP-8 (read-out: average IC50 in multiple myeloma (MOLP-8) cells) is approximately 1010 nM; in the experiment with DU4475 (read-out: average IC50 in triple negative breast cancer (DU4475) cells), approximately 1240 nM.
As to `O=C1C=CCCN1C(=O)/C=C/c1ccnnc1` [Compound 39, (E)-1-(3-(pyridazin-4-yl)acryloyl)-5,6-dihydropyridin-2(1H)-one], the IC50 in the experiment with MOLP-8 (setting [2]) is 300 nM; in the experiment with DU4475 (setting [3]), 650 nM.
Taken in the same sequence, the figures for `CC(C)(O)CN1CCC(/C=C/C(=O)N2CCC=CC2=O)CC1` [Compound 59, 1-{(2E)-3-[1-(2-hydroxy-2-methylpropyl)piperidin-4-yl]prop-2-enoyl}-5,6-dihydropyridin-2(1H)-one] were 390 nM and 840 nM.
